In US8299048B2, “Hexahydrocyclopentyl[f]indazole sulfonamides and derivatives thereof as selective glucocorticoid receptor modulators” (Merck Sharp & Dohme Corp., priority 2008, dated 2012):

Target: T1, glucocorticoid receptor (Homo sapiens, UniProt P04150)
T1 construct: endogenous in cells
T1 sequence (P04150 1-777): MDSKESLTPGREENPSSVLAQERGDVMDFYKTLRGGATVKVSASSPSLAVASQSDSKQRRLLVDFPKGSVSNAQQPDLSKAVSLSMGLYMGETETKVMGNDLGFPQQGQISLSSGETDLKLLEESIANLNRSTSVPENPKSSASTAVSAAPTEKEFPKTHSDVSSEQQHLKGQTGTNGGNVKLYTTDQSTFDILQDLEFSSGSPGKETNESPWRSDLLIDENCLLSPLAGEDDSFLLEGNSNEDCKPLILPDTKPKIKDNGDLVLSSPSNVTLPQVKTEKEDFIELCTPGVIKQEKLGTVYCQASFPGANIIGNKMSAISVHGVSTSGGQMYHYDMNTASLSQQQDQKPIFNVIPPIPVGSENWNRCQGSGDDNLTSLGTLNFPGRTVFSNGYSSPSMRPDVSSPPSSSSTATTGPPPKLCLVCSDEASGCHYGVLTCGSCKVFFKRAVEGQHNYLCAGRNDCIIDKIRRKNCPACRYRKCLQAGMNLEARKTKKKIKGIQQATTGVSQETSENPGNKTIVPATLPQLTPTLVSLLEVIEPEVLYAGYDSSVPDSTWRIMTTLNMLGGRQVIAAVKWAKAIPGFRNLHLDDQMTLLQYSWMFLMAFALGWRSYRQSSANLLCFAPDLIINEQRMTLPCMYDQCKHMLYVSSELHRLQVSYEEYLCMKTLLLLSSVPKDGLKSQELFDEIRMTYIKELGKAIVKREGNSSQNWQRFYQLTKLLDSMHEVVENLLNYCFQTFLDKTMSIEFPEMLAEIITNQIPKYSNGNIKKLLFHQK
Assay: Ligand binding assay (GR BIND)
Procedure, shortened: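 Cytosol from freeze–thawed cells in TEGM (pH 7.2, 10 mM molybdate) was incubated overnight at 4 °C with compound and [3H]-dexamethasone trace (added as 6 nM solution), 2% EtOH final. Bound ligand was captured on hydroxylapatite, filtered, washed and scintillation counted. Values were calculated with dexamethasone as reference.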

Ki [nM]	SMILES
3.4	CCS(=O)(=O)N(CC1CCCO1)C[C@H]1CCC2=Cc3c(cnn3-c3ccc(F)cc3)C[C@@]21C (stereo partly drawn) [Example 174, N-{[(4αR,5S)-1-(4-fluorophenyl)-4α-methyl-1,4,4α,5,6,7-hexahydrocyclopenta[f]indazol-5-yl]methyl}-N-(tetrahydrofuran-2-ylmethyl)ethanesulfonamide]
0.8	COC(=O)c1ccccc1S(=O)(=O)N(CC1CC1)C[C@H]1CCC2=Cc3c(cnn3-c3ccc(F)cc3)C[C@@]21C [Example 18, methyl 2-[((cyclopropylmethyl){[(4αR,5S)-1-(4-fluorophenyl)-4α-methyl-1,4,4α,5,6,7-hexahydrocyclopenta[f]indazol-5 yl]methyl}amino)sulfonyl]benzoate]
2.5	C[C@]12Cc3cnn(-c4ccc(F)cc4)c3C=C1CC[C@@H]2CN(CC#N)S(=O)(=O)c1ccc(F)c(F)c1 [Example 25, N-(cyanomethyl)-3,4-difluoro-N-{[(4αR,5S)-1-(4-fluorophenyl)-4α-methyl-1,4,4α,5,6,7-hexahydrocyclopenta[f]indazol-5-yl]methyl}benzenesulfonamide]
4.4	C[C@]12Cc3cnn(-c4ccc(F)cc4)c3C=C1CC[C@@H]2CN(CCO)S(=O)(=O)c1ccc(C#N)cc1Cl [Example 60, 2-chloro-4-cyano-N-{[(4αR,5S)-1-(4-fluorophenyl)-4α-methyl-1,4,4α,5,6,7-hexahydrocyclopenta[f]indazol-5-yl]methyl}-N-(2-hydroxyethyl)benezenesulfonamide]
2.5	C[C@]12Cc3cnn(-c4ccc(F)cc4)c3C=C1CC[C@@H]2CN(CCO)S(=O)(=O)c1cccc(Cl)c1Cl [Example 61, 2,3-dichloro-N-{[(4αR,5S)-1-(4-fluorophenyl)-4α-methyl-1,4,4α,5,6,7-hexahydrocyclopenta[f]indazol-5-yl]methyl}-N-(2-hydroxyethyl)benezenesulfonamide]
8.8	C[C@]12Cc3cnn(-c4ccc(F)cc4)c3C=C1CC[C@@H]2CN(CC#N)S(=O)(=O)c1ccc(Cl)c(C(F)(F)F)c1 [Example 27, 4-chloro-N-(cyanomethyl)-N-{[(4αR,5S)-1-(4-fluorophenyl)-4α-methyl-1,4,4α,5,6,7-hexahydrocyclopenta[f]indazol-5-yl]methyl}-3-(trifluoromethyl)benzenesulfonamide]
0.7	C[C@]12Cc3cnn(-c4ccc(F)cc4)c3C=C1CC[C@@H]2CN(CC#N)S(=O)(=O)c1ccc(F)cc1 [Example 46, N-(cyanomethyl)-4-fluoro-N-{[(4αR,5S)-1-(4-fluorophenyl)-4α-methyl-1,4,4α,5,6,7-hexahydrocyclopenta[f]indazol-5-yl]methyl}benzenesulfonamide]
13.1	C[C@H](O)CN(C[C@H]1CCC2=Cc3c(cnn3-c3ccc(F)cc3)C[C@@]21C)S(=O)(=O)Cc1ccccc1C(N)=O [Example 185, 2-[({{[(4αR,5S)-1-(4-fluorophenyl)-4α-methyl-1,4,4α,5,6,7-hexahydrocyclopenta[f]indazol-5-yl]methyl}[(2S)-2-hydroxypropyl]amino}sulfonyl)methyl]benzamide]
1.3	Cc1noc(C)c1S(=O)(=O)N(C)C[C@H]1CCC2=Cc3c(cnn3-c3ccc(F)cc3)C[C@@]21C [Example 176, N-{[(4αR,5S)-1-(4-fluorophenyl)-4α-methyl-1,4,4α,5,6,7-hexahydrocyclopenta[f]indazol-5-yl]methyl}-N,3,5-trimethylisoxazole-4-sulfonamide]
2.3	C[C@]12Cc3cnn(-c4ccc(F)cc4)c3C=C1CC[C@@H]2CN(CC#N)S(=O)(=O)c1ccc(C#N)cc1 [Example 28, 4-cyano-N-(cyanomethyl)-N-{[(4αR,5S)-1-(4-fluorophenyl)-4α-methyl-1,4,4α,5,6,7-hexahydrocyclopenta[f]indazol-5-yl]methyl}benzenesulfonamide]
10.5	C[C@]12Cc3cnn(-c4ccc(F)cc4)c3C=C1CC[C@@H]2CN(CC#N)S(=O)(=O)c1cccc2ccccc12 [Example 40, N-(cyanomethyl)-N-{[(4αR,5S)-1-(4-fluorophenyl)-4α-methyl-1,4,4α,5,6,7-hexahydrocyclopenta[f]indazol-5-yl]methyl}naphthalene-1-sulfonamide]
3.9	Cn1cc(S(=O)(=O)N(CC#N)C[C@H]2CCC3=Cc4c(cnn4-c4ccc(F)cc4)C[C@@]32C)c(C(F)(F)F)n1 [Example 32, N-(cyanomethyl)-N-{[(4αR,5S)-1-(4-fluorophenyl}-4α-methyl-1,4,4α,5,6,7-hexahydrocyclopenta[f]indazol-5-yl]methyl}-1-methyl-3-(trifluoromethyl)-1H-pyrazole-4-sulfonamide]
6.5	C[C@]12Cc3cnn(-c4ccc(F)cc4)c3C=C1CC[C@@H]2CN(CC#N)S(=O)(=O)c1ccccc1Cl [Example 50, 2-chloro-N-(cyanomethyl)-N-{[(4αR,5S)-1-(4-fluorophenyl)-4α-methyl-1,4,4α,5,6,7-hexahydrocyclopenta[f]indazol-5-yl]methyl}benzenesulfonamide]
2.6	Cc1noc(C)c1S(=O)(=O)N(CC1CCCO1)C[C@H]1CCC2=Cc3c(cnn3-c3ccc(F)cc3)C[C@@]21C (stereo partly drawn) [Example 170, N-{[(4αR,5S)-1-(4-fluorophenyl)-4α-methyl-1,4,4α,5,6,7-hexahydrocyclopenta[f]indazol-5-yl]methyl}-3,5-dimethyl-N-(tetrahydrofuran-2-ylmethyl)isoxazole-4-sulfonamide]
20.9	C[C@]12Cc3cnn(-c4ccc(F)cc4)c3C=C1CC[C@@H]2CNS(=O)(=O)Cc1cccnc1 [Example 169, N-{[(4αR,5S)-1-(4-fluorophenyl)-4α-methyl-1,4,4α,5,6,7-hexahydrocyclopenta[f]indazol-5-yl]methyl}-1-pyridin-3-ylmethanesulfonamide]
5.1	Cn1nc(C(F)(F)F)cc1-c1ccc(S(=O)(=O)N(CC#N)C[C@H]2CCC3=Cc4c(cnn4-c4ccc(F)cc4)C[C@@]32C)s1 [Example 35]
1.2	CCN(C[C@H]1CCC2=Cc3c(cnn3-c3ccc(F)cc3)C[C@@]21C)S(=O)(=O)CC(F)(F)F [Example 179, N-ethyl-2,2,2-trifluoro-N-{[(4αR,5S)-1-(4-fluorophenyl)-4α-methyl-1,4,4α,5,6,7-hexahydrocyclopenta[f]indazol-5-yl]methyl}ethanesulfonamide]
4	C[C@]12Cc3cnn(-c4ccc(F)cc4)c3C=C1CC[C@@H]2CN(CCO)S(=O)(=O)c1ccc(F)c(Cl)c1 [Example 19, 3-chloro-4-fluoro-N-{[(4αR,5S)-1-(4-fluorophenyl)-4α-methyl-1,4,4α,5,6,7-hexahydrocyclopenta[f]indazol-5-yl]methyl}-N-(2-hydroxyethyl)benzenesulfonamide]
64	C[C@H](O)CN(C[C@H]1CCC2=Cc3c(cnn3-c3ccc(F)cc3)C[C@@]21C)S(=O)(=O)Cc1ccccc1C(=O)O [Example 183, 2-[({{[(4αR,5S)-1-(4-fluorophenyl)-4α-methyl-1,4,4α,5,6,7-hexahydrocyclopenta[f]indazol-5-yl]methyl}[(2S)-2-hydroxypropyl]amino}sulfonyl)methyl]benzoic acid]
2.2	C[C@]12Cc3cnn(-c4ccc(F)cc4)c3C=C1CC[C@@H]2CN(CC#N)S(=O)(=O)c1ccccc1F [Example 43, N-(cyanomethyl)-2-fluoro-N-{[(4αR,5S)-1-(4-fluorophenyl)-4α-methyl-1,4,4α,5,6,7-hexahydrocyclopenta[f]indazol-5-yl]methyl}benzenesulfonamide]
2.8	COC(=O)c1ccccc1CS(=O)(=O)N(C[C@H]1CCC2=Cc3c(cnn3-c3ccc(F)cc3)C[C@@]21C)C[C@H](C)O [Example 181, methyl 2-[({{[(4αR,5S)-1-(4-fluorophenyl)-4α-methyl-1,4,4α,5,6,7-hexahydrocyclopenta[f]indazol-5-yl]methyl}[(2S)-2-hydroxypropyl]amino}sulfonyl)methyl]benzoate]
5.9	C[C@]12Cc3cnn(-c4ccc(F)cc4)c3C=C1CC[C@@H]2CN(CC#N)S(=O)(=O)c1ccc(-c2ccccc2)cc1 [Example 42, N-(cyanomethyl)-N-{[(4αR,5S)-1-(4-fluorophenyl)-4α-methyl-1,4,4α,5,6,7-hexahydrocyclopenta[f]indazol-5-yl]methyl}biphenyl-4-sulfonamide]
1.6	C[C@]12Cc3cnn(-c4ccc(F)cc4)c3C=C1CC[C@@H]2CN(CC#N)S(=O)(=O)c1cc(F)cc(F)c1 [Example 44, N-(cyanomethyl)-3,5-difluoro-N-{[(4αR,5S)-1-(4-fluorophenyl)-4α-methyl-1,4,4α,5,6,7-hexahydrocyclopenta[f]indazol-5-yl]methyl}benzenesulfonamide]
1.5	C[C@]12Cc3cnn(-c4ccc(F)cc4)c3C=C1CC[C@@H]2CN(CCc1ccccc1F)S(=O)(=O)Cc1ccccc1C(N)=O [Example 190, 2-{[([2-(2-fluorophenyl)ethyl]{[(4αR,5S)-1-(4-fluorophenyl)-4α-methyl-1,4,4α,5,6,7-hexahydrocyclopenta[f]indazol-5-yl]methyl}amino)sulfonyl]methyl}benzamide]
